According to patent US6458802B1, “Antidepressant azaheterocyclymethyl derivatives of 2,3-dihydro-1,4-dioxino [2,3-f]quinoline” (Wyeth, priority 2001, dated 2002):
Counter-ions that a name gives are not always drawn. Like-named read-outs stand apart in the source and are kept apart here.

Key:
[1] = biological target: T1, cloned human 5HT1A receptors (Homo sapiens, UniProt P08908); test: 35S-GTPγS binding assay, antagonist activity at 5HT1A receptors; assay type: biochemical; conditions: for 5HT1A Function (Imax) / Emax: maximum inhibitory effect in 35S-GTPγS binding versus 8-OH-DPAT; for IC50: 35S-GTPγS binding, reversal of the effects of the standard agonist 8-OH-DPAT, membranes with cloned human 5HT1A receptors, read-out: 5HT1A Function IC50; for Emax: read-out: 5HT1A Function (Imax)
T1 construct: expressed in transfected cells
T1 sequence (P08908 1-422): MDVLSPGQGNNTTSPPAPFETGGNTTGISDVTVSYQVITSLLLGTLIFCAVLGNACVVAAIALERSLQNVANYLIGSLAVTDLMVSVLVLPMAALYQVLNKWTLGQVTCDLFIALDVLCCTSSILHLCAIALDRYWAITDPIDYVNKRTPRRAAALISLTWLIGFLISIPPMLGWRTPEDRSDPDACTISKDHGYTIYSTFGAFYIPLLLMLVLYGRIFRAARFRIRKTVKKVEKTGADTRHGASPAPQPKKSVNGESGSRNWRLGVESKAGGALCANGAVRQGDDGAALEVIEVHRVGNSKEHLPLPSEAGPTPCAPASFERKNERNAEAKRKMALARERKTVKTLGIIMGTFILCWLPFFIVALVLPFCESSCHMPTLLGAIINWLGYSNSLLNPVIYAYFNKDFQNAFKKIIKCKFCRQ
Method: Antagonist activity at 5HT1A receptors was established by using a ^35S-GTPγS binding assay similar to that used by Lazareno and Birdsall (Br. J. Pharmacol. 109: 1120, 1993), in which the test compound's ability to affect the binding of 35S-GTPγS to membranes containing cloned human 5HT1A receptors was determined. Agonists produce an increase in binding whereas antagonists produce no increase but rather reverse the effects of the standard agonist 8-OH-DPAT. The test compound's maximum inhibitory effect is represented as the 1max, while its potency is defined by the IC50.

human 5HT1A receptors = biological target: T2, human 5HT1A receptors (Homo sapiens, UniProt P08908); test: [3H] 8-OH-DPAT displacement from the 5HT1A serotonin receptor (transfected CHO cells); assay type: binding
T2 construct: expressed in transfected cells; host or cells: CHO cells
T2 sequence (P08908 1-422): T1 sequence (P08908 1-422)
Excerpt: High affinity for the serotonin 5HT1A receptor was established by testing the claimed compound's ability to displace [^3H] 8-OH-DPAT (dipropylamino-tetralin) from the 5HT1A serotonin receptor following a modification of the procedure of Hall et al., J. Neurochem. 44, 1685 (1985) which utilizes CHO cells stably transfected with human 5HT1A receptors.

serotonin transporter = biological target: T3, serotonin transporter (Rattus norvegicus, UniProt P31652); test: 3H-paroxetine displacement, affinity for the serotonin transporter; assay type: binding
T3 construct: displace ^3H-paroxetine from male rat frontal cortical membranes; from tissue; host or cells: male rat frontal cortex membranes

[2] = displacement of [3H] 8-OH-DPAT, CHO cells stably transfected with human 5HT1A receptors, read-out: 5HT1A Receptor Affinity KI

T3 sequence (P31652 whole entry): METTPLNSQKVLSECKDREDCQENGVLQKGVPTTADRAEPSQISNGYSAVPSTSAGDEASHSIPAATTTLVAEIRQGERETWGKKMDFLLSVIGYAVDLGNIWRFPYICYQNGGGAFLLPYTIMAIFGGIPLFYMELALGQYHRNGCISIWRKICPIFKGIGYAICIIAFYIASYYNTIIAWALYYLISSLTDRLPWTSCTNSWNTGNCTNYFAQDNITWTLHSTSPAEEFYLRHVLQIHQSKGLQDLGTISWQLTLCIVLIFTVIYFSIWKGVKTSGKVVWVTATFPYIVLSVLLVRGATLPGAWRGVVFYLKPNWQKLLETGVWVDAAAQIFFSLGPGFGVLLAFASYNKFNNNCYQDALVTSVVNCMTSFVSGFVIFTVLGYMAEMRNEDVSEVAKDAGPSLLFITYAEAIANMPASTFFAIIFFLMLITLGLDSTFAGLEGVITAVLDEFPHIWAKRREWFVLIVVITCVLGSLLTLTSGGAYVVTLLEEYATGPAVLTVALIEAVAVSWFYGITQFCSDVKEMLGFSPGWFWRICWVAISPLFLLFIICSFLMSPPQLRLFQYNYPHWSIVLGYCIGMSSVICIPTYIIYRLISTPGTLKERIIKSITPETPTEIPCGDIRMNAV

Compound	melting point	IC50 [1]	Emax [1]	Ki (human 5HT1A receptors)	Ki (serotonin transporter)	also measured
2-({4-[(6-Chloro-1H-indol-3-yl)methyl]piperidin-1-yl}methyl)-8-methyl-2,3-dihydro[1,4]dioxino[2,3-f]quinoline [Example 20]						5HT1A Function (Imax) [1]: (100)
2-({4-[(7-Ethyl-1H-indol-3-yl)methyl]piperidin-1-yl}methyl)-8-methyl-2,3-dihydro[1,4]dioxino[2,3-f]quinoline [Example 19]						5HT1A Function (Imax) [1]: (100)
NC(=O)c1ccc2[nH]cc(C3=CCN(C[C@H]4COc5ccc6ncccc6c5O4)CC3)c2c1 (as salt: fumarate) (hydrate or solvate) [Example 6, 3-[1-(2,3-Dihydro[1,4]dioxino[2,3-f]qiuinolin-2-ylmethyl)-1,2,3,6-tetrahydropyridin-4-yl]-1H-indole-5-carboxylic Acid Amide]	219 °C					
Cc1ccc2c3c(ccc2n1)OCC(CN1CC=C(c2c[nH]c4ccc(F)cc24)CC1)O3 (stereo not drawn) (as salt: fumarate) (hydrate or solvate) [Example 11, 2-[4-(5-Fluoro-1H-indol-3-yl)-3,6-dihydro-2H-pyridin-1-ylmethyl]-8-methyl-2,3-dihydro[1,4]dioxino[2,3-f]quinoline]	198 to 199 °C					
Cc1ccc2c3c(ccc2n1)OCC(CN1CCC(c2c[nH]c4ccccc24)CC1)O3 (stereo not drawn) (as salt: fumarate) (hydrate or solvate) [Example 12, 2-[4-(1H-indol-3-yl)piperidin-1-ylmethyl]-8-methyl-2,3-dihydro[1,4]dioxino[2,3-f]quinoline]	206 °C					
CCc1ccc2c3c(ccc2n1)OCC(CN1CC=C(c2c[nH]c4ccc(F)cc24)CC1)O3 (stereo not drawn) (as salt: fumarate) (hydrate or solvate) [Example 14, 8-Ethyl-2-[(4-(5-fluoro-1H-indol-3-yl)-3,6-dihydropyridin-1(2H)-yl)methyl]-2,3-dihydro[1,4]dioxino[2,3-f]quinoline]	143 to 144 °C					
Fc1ccc2[nH]cc(C3=CCN(CC4COc5cc(F)c6ncccc6c5O4)CC3)c2c1 (stereo not drawn) (as salt: fumarate) (hydrate or solvate) [Example 15, 6-Fluoro-2-[(4-(5-fluoro-1H-indol-3-yl)-3,6-dihydropyridin-1(2H)-yl)methyl]-2,3-dihydro[1,4]dioxino[2,3-f]quinoline]	190 °C					
Nc1ccc2c3c(ccc2n1)OC[C@H](CN1CC=C(c2c[nH]c4ccc(F)cc24)CC1)O3 (as salt: fumarate) (hydrate or solvate) [Example 18, 2-[4-(5-Fluoro-1H-indol-3-yl)-3,6-dihydro-2H-pyridin-1-ylmethyl]-2,3-dihydro[1,4]dioxino[2,3-f]guinolin-8-ylamine]	245 °C					
Cc1ccc2[nH]cc(C3=CCN(CC4COc5ccc6nc(C)ccc6c5O4)CC3)c2c1 (stereo not drawn) (as salt: fumarate) (hydrate or solvate) [Example 22, 2-[4-(5-Methyl-1H-indol-3-yl)-3,6-dihydro-2H-pyridin-1-ylmethyl]-8-methyl-2,3-dihydro[1,4]dioxino[2,3-f]quinoline]	150 to 155 °C					
COc1ccc2[nH]cc(C3=CCN(C[C@H]4COc5ccc6ncccc6c5O4)CC3)c2c1 (as salt: fumarate) [Example 1]	170 °C					
COc1ccc2[nH]cc(C3=CCN(C[C@H]4COc5ccc6ncccc6c5O4)CC3)c2c1 [Example 1]		322 nM	100%	9.29 nM	54 nM	
Fc1ccc2[nH]cc(C3=CCN(C[C@H]4COc5ccc6ncccc6c5O4)CC3)c2c1 [Example 2]		243 nM	100%	9.88 nM	2.82 nM	
Fc1ccc2[nH]cc(CC3CCN(C[C@H]4COc5ccc6ncccc6c5O4)CC3)c2c1 [Example 3]		120 nM	90%			Ki (human 5HT1A receptors; [2]): 17.2 nM; Ki (serotonin transporter; displacement of 3H-paroxetine from male rat frontal cortical membranes, read-out: 5-HT Transporter Affinity KI): 1.2 nM
C1=C(c2c[nH]c3ccccc23)CCN(C[C@H]2COc3ccc4ncccc4c3O2)C1 [Example 4, 2-[1,4-(1H-indol-3-yl)-3,6-dihydro-2H-pyridin-1-ylmethyl]-2,3-dihydro[1,4]dioxino[2,3-f]quinoline]		226 nM	87%	4.84 nM	3.38 nM	
N#Cc1ccc2[nH]cc(C3=CCN(CC4COc5ccc6ncccc6c5O4)CC3)c2c1 (stereo not drawn) [Example 5, 3-[1-(2,3-Dihydro[1,4]dioxino[2,3-f]quinolin-2-ylmethyl)-1,2,3,6-tetrahydropyridin-4-yl]-1H-indole-5-carbonitrile]					2.54 nM	Ki (human 5HT1A receptors; [2]): 19.3 nM
NC(=O)c1ccc2[nH]cc(C3=CCN(C[C@H]4COc5ccc6ncccc6c5O4)CC3)c2c1 [Example 6, 3-[1-(2,3-Dihydro[1,4]dioxino[2,3-f]qiuinolin-2-ylmethyl)-1,2,3,6-tetrahydropyridin-4-yl]-1H-indole-5-carboxylic Acid Amide]					3.54 nM	Ki (human 5HT1A receptors; [2]): 9.44 nM
Cn1cc(C2=CCN(C[C@H]3COc4ccc5ncccc5c4O3)CC2)c2cc(F)ccc21 [Example 7, 2-[4-(5-Fluoro-1-methyl-1H-indol-3-yl)-3,6-dihydro-2H-pyridin-1-ylmethyl]-2,3-dihydro[1,4]dioxino[2,3-f]qiuinoline]		1080 nM	100%	14.7 nM	8.5 nM	
Cc1ccc2c3c(ccc2n1)OCC(CN1CC=C(c2c[nH]c4cc(F)ccc24)CC1)O3 (stereo not drawn) [Example 10, 2-[4-(6-Fluoro-1H-indol-3-yl)-3,6-dihydro-2H-pyridin-1-ylmethyl]-8-methyl-2,3-dihydro[1,4]dioxino[2,3-f]quinoline]		259 nM	100%	6.7 nM	8 nM	
Cc1ccc2c3c(ccc2n1)OCC(CN1CC=C(c2c[nH]c4ccc(F)cc24)CC1)O3 (stereo not drawn) [Example 11, 2-[4-(5-Fluoro-1H-indol-3-yl)-3,6-dihydro-2H-pyridin-1-ylmethyl]-8-methyl-2,3-dihydro[1,4]dioxino[2,3-f]quinoline]		120 nM	100%	13.2 nM	5.51 nM	
Cc1ccc2c3c(ccc2n1)OCC(CN1CCC(c2c[nH]c4ccccc24)CC1)O3 (stereo not drawn) [Example 12, 2-[4-(1H-indol-3-yl)piperidin-1-ylmethyl]-8-methyl-2,3-dihydro[1,4]dioxino[2,3-f]quinoline]		85.7 nM	100%	9.98 nM	2.39 nM	
CCc1ccc2c3c(ccc2n1)OCC(CN1CC=C(c2c[nH]c4ccc(F)cc24)CC1)O3 (stereo not drawn) [Example 14, 8-Ethyl-2-[(4-(5-fluoro-1H-indol-3-yl)-3,6-dihydropyridin-1(2H)-yl)methyl]-2,3-dihydro[1,4]dioxino[2,3-f]quinoline]		166 nM	100%	15.4 nM	14 nM	
Fc1ccc2[nH]cc(C3=CCN(CC4COc5cc(F)c6ncccc6c5O4)CC3)c2c1 (stereo not drawn) [Example 15, 6-Fluoro-2-[(4-(5-fluoro-1H-indol-3-yl)-3,6-dihydropyridin-1(2H)-yl)methyl]-2,3-dihydro[1,4]dioxino[2,3-f]quinoline]		1030 nM	100%	36.4 nM	1.5 nM	
COc1cc2c(c3cccnc13)O[C@@H](CN1CC=C(c3c[nH]c4ccc(F)cc34)CC1)CO2 [Example 17, 2-[4-(5-Fluoro-1H-indol-3-yl)-3,6-dihydro-2H-pyridin-1-ylmethyl]-6-methoxy-2,3-dihydro[1,4]dioxino[2,3-f]qiuinoline]		1410 nM	100%		4.74 nM	Ki (human 5HT1A receptors; [2]): 317 nM
Nc1ccc2c3c(ccc2n1)OC[C@H](CN1CC=C(c2c[nH]c4ccc(F)cc24)CC1)O3 [Example 18, 2-[4-(5-Fluoro-1H-indol-3-yl)-3,6-dihydro-2H-pyridin-1-ylmethyl]-2,3-dihydro[1,4]dioxino[2,3-f]guinolin-8-ylamine]		84.9 nM	100%	10.9 nM	0.66 nM	
Cc1ccc2[nH]cc(C3=CCN(CC4COc5ccc6nc(C)ccc6c5O4)CC3)c2c1 (stereo not drawn) [Example 22, 2-[4-(5-Methyl-1H-indol-3-yl)-3,6-dihydro-2H-pyridin-1-ylmethyl]-8-methyl-2,3-dihydro[1,4]dioxino[2,3-f]quinoline]		503 nM	100%	34.7 nM	59 nM	
